# Experimental data reported in patent US20120101100A1 (priority 2008, published 2012).
# Counter-ions that a name gives are not always drawn.
# Target: S. aureus GyrB ATPase (Staphylococcus aureus, UniProt P0A0K8)
# Test: S. aureus (SAU) GyrB ATPase inhibition, malachite green phosphate detection (E. coli GyrA + S. aureus GyrB)
# Type: biochemical
# Settings: compound concentration of 1.0 μM unless otherwise noted; average value where assay was carried out more than once; read-out: S. aureus (SAU) GyrB ATPase % Inhibition
# Method in brief: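 Phosphate from ATP hydrolysis (500 μM ATP) read as malachite green/molybdate absorbance at 650 nm after acid quench. Reaction: 1.25 nM S. aureus GyrB plus 1.25 nM E. coli GyrA, sheared DNA, Hepes pH 7.5 with Mg2+. IC50 fitted over 10 concentrations, normalised to DMSO (2%) and novobiocin (2 μM) controls.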
# Sequence of S. aureus GyrB ATPase (P0A0K8 whole entry): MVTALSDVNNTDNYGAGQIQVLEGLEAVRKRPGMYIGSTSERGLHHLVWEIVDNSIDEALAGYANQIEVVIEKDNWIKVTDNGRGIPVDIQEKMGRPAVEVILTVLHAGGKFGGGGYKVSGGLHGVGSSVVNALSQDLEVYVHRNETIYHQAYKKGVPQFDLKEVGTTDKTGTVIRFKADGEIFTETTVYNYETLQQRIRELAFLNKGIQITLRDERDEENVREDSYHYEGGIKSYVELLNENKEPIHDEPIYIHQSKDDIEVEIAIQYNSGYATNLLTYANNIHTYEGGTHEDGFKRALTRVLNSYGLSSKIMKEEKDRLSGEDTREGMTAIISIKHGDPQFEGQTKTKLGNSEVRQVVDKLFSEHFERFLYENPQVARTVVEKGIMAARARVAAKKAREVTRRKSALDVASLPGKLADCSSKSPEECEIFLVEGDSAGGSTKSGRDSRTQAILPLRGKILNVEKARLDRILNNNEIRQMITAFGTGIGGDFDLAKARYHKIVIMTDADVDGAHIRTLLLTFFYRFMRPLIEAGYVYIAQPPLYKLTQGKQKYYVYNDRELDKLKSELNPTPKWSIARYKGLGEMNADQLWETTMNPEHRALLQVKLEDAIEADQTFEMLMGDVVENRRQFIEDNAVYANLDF
# Sequence of S. aureus GyrB ATPase (P0AES4 whole entry, further chain): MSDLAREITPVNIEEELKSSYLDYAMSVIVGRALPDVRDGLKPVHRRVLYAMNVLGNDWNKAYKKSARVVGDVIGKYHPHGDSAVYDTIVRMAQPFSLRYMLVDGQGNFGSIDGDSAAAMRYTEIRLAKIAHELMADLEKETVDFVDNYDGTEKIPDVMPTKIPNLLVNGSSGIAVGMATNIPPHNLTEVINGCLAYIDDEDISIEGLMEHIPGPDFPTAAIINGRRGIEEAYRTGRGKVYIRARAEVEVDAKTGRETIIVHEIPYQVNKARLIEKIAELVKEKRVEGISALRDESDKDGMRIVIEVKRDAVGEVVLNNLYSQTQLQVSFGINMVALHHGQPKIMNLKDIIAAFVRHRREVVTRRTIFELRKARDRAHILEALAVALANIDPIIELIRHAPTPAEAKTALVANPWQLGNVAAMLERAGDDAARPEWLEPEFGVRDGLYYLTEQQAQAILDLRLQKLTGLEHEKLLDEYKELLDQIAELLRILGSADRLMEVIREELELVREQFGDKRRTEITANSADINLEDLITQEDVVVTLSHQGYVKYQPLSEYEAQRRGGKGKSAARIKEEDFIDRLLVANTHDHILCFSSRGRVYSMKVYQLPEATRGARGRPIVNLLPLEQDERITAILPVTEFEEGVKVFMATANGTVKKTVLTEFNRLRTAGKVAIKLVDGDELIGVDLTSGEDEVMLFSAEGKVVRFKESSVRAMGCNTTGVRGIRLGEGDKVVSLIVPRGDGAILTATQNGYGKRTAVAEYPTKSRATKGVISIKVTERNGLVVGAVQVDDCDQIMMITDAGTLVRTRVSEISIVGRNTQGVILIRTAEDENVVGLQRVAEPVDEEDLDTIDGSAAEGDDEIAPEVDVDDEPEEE
row,SMILES,inhibition at 1 µM [%]
1,CCNC(=O)Nc1cc(-c2nc(C(F)(F)F)cs2)c(-c2cnc(C#N)nc2)cn1 [Example 126],102
2,"CCNC(=O)Nc1cc(-c2nc(-c3ccccn3)cs2)c(-c2cncc(-c3n[nH]c(=O)o3)c2)cn1 [Example 10, N-ethyl-N′-[5′-(5-oxo-4,5-dihydro-1,3,4-oxadiazol-2-yl)-4-(4-pyridin-2-yl-1,3-thiazol-2-yl)-3,3′-bipyridin-6-yl]urea]",95
3,"CCNC(=O)Nc1cc(-c2nc(-c3ccccc3)cs2)c(-c2nc(-c3ncccn3)c(-c3nnc(C)o3)s2)cn1 [Example 98, 1-ethyl-3-(5-(5-(5-methyl-1,3,4-oxadiazol-2-yl)-4-(pyrimidin-2-yl)thiazol-2-yl)-4-(4-phenylthiazol-2-yl)pyridin-2-yl)urea]",100
4,"CCNC(=O)Nc1cc(-c2nc(C(F)(F)F)cs2)c(-c2cc(-c3nnc([C@@H](N)C(C)C)o3)cnc2OCCN(CC)CC)cn1 [Example 122, 1-(5′-(5-(1-amino-2-methylpropyl)-1,3,4-oxadiazol-2-yl)-2′-(2-(diethylamino)ethoxy)-4-(4-(trifluoromethyl)thiazol-2-yl)-3,3′-bipyridin-6-yl)-3-ethylurea hydrochloride]",102
5,CCNC(=O)Nc1cc(C2=NC(OC)(C(F)(F)F)CS2)c(-c2cncc(-c3n[nH]c(=O)o3)c2)cn1 (centres unmarked) [Example 143],98
6,CCNC(=O)Nc1cc(-c2nc(C(F)(F)F)cs2)c(-c2cncc(-c3nnc(NCCOC)o3)c2)cn1 [Example 153],100
7,"CCNC(=O)Nc1cc(-c2nc(C(F)(F)F)cs2)c(-c2nc3c(=O)[nH][nH]c(=O)c3s2)cn1 [Example 16, 1-{5-(4,7-dioxo-4,5,6,7-tetrahydro[1,3]thiazolo[4,5-d]pyridazin-2-yl)-4-[4-(trifluoromethyl)-1,3-thiazol-2-yl]pyridin-2-yl}-3-ethylurea]",115
8,"CCNC(=O)Nc1cc(-c2nc(C(F)(F)F)cs2)c(-c2cncc(-c3n[nH]c(=O)o3)n2)cn1 [Example 35, 1-ethyl-3-(5-(6-(5-oxo-4,5-dihydro-1,3,4-oxadiazol-2-yl)pyrazin-2-yl)-4-(4-(trifluoromethyl)thiazol-2-yl)pyridin-2-yl)urea]",103
9,CCNC(=O)Nc1cc(-c2nc(C(F)(F)F)cs2)c(-c2cnc(OCCOC)c(-c3n[nH]c(=O)o3)c2)cn1 [Example 254],97
10,"CCNC(=O)Nc1cc(-c2nc(-c3ccccc3)cs2)c(-c2cc(-c3n[nH]c(=O)o3)cnc2CC)cn1 [Example 72, 1-ethyl-3-(2′-ethyl-5′-(5-hydroxy-1,3,4-oxadiazol-2-yl)-4-(4-phenylthiazol-2-yl)-3,3′-bipyridin-6-yl)urea]",95
11,"CCCNC(=O)Nc1cc(-c2nc(C(F)(F)F)cs2)c(-c2cncc(-c3nnc(C)o3)c2)cn1 [Example 173, 1-(5′-(5-methyl-1,3,4-oxadiazol-2-yl)-4-(4-(trifluoromethyl)thiazol-2-yl)-3,3′-bipyridin-6-yl)-3-propylurea]",95
12,CCNC(=O)Nc1cc(-c2nc(-c3ccccn3)cs2)c(-c2cncc(S(C)(=O)=O)c2)cn1 [Example 129],102
13,"CCNC(=O)Nc1cc(-c2nc(C(F)(F)F)cs2)c(-c2cncc(-c3nnc([C@H]4COCCN4)o3)c2)cn1 [Example 240, (R)-1-ethyl-3-(5′-(5-(morpholin-3-yl)-1,3,4-oxadiazol-2-yl)-4-(4-(trifluoromethyl)thiazol-2-yl)-3,3′-bipyridin-6-yl)urea]",95
14,"CCNC(=O)Nc1cc(-c2nc(C(F)(F)F)cs2)c(-c2cncc(-c3nnc([C@H](N)C(C)C)o3)c2)cn1 [Example 280, (R)-1-(5′-(5-(1-amino-2-methylpropyl)-1,3,4-oxadiazol-2-yl)-4-(4-(trifluoromethyl)thiazol-2-yl)-3,3′-bipyridin-6-yl)-3-ethylurea]",95
15,"CCNC(=O)Nc1cc(-c2nc(C(F)(F)F)cs2)c(-c2cc(-c3n[nH]c(=O)o3)cnc2OCCN2CCOCC2)cn1 [Example 102, 1-Ethyl-3-(2′-(2-morpholinoethoxy)-5′-(5-oxo-4,5-dihydro-1,3,4-oxadiazol-2-yl)-4-(4-(trifluoromethyl)thiazol-2-yl)-3,3′-bipyridin-6-yl)urea]",92
16,"CCNC(=O)Nc1cc(-c2nc(C(F)(F)F)cs2)c(-c2ccnc(-c3n[nH]c(=O)o3)c2)cn1 [Example 33, 1-ethyl-3-(2′-(5-oxo-4,5-dihydro-1,3,4-oxadiazol-2-yl)-4-(4-(trifluoromethyl)thiazol-2-yl)-3,4′-bipyridin-6-yl)urea]",117
17,CCCCOc1ncc(-c2cnc(NC(=O)NCC)cc2-c2nc(C(F)(F)F)cs2)cc1-c1nnc(C)o1 [Example 41],109
18,CCNC(=O)Nc1cc(-c2nc(-c3ccccc3)cs2)c(-c2nc(-c3ncnn3C)c(-c3n[nH]c(=O)o3)s2)cn1 [Example 200],93
19,"O=C(Nc1cc(-c2nc(C(F)(F)F)cs2)c(-c2cncc(-c3n[nH]c(=O)o3)c2)cn1)NC1CC1 [Example 45, 1-cyclopropyl-3-(5′-(5-oxo-4,5-dihydro-1,3,4-oxadiazol-2-yl)-4-(4-(trifluoromethyl)thiazol-2-yl)-3,3′-bipyridin-6-yl)urea]",103

row,SMILES,inhibition at 1 µM [%]
1,"CCNC(=O)Nc1cc(-c2nc(C(F)(F)F)cs2)c(-c2cncc(-c3nnc(C4(O)CC4)o3)c2)cn1 [Example 273, 1-ethyl-3-(5′-(5-(1-hydroxycyclopropyl)-1,3,4-oxadiazol-2-yl)-4-(4-(trifluoromethyl)thiazol-2-yl)-3,3′-bipyridin-6-yl)urea]",98
2,CCNC(=O)Nc1cc(-c2cn(Cc3ccccc3)nn2)c(-c2cc(-c3n[nH]c(=O)o3)ccn2)cn1 [Example 288],91
3,CCNC(=O)Nc1cc(-c2nc(C3CCN(C(=O)n4ccnc4)CC3)cs2)c(-c2cncc(-c3n[nH]c(=O)o3)c2)cn1 [Example 213],95
4,CCNC(=O)Nc1cc(-c2nc(C(F)(F)F)cs2)c(-c2cc(-c3n[nH]c(=O)o3)cnc2OCCN(CC)CC)cn1 [Example 119],96
5,CCNC(=O)Nc1cc(-n2cc(C(F)(F)F)cn2)c(-c2cncc(-c3n[nH]c(=O)o3)c2)cn1 [Example 148],97
6,CCNC(=O)Nc1cc(-c2nc(C(F)(F)F)cs2)c(-c2cc(-c3n[nH]c(=O)o3)cnc2OCCN(C(C)C)C(C)C)cn1 [Example 120],118
7,"CCNC(=O)Nc1cc(-c2nc(C(F)(F)F)cs2)c(-c2cncc(-c3nnc([C@@H]4COCCN4)o3)c2)cn1 [Example 239, (S)-1-ethyl-3-(5′-(5-(morpholin-3-yl)-1,3,4-oxadiazol-2-yl)-4-(4-(trifluoromethyl)thiazol-2-yl)-3,3′-bipyridin-6-yl)urea]",94
8,CCNC(=O)Nc1cc(-c2nc(-c3ccccc3)cs2)c(-c2nc(-c3ncccn3)c(-c3n[nH]c(=O)o3)s2)cn1 [Example 199],94
9,"O=C(NCC1CC1)Nc1cc(-c2nc(C(F)(F)F)cs2)c(-c2cncc(-c3n[nH]c(=O)o3)c2)cn1 [Example 48, 1-(cyclopropylmethyl)-3-(5′-(5-oxo-4,5-dihydro-1,3,4-oxadiazol-2-yl)-4-(4-(trifluoromethyl)thiazol-2-yl)-3,3′-bipyridin-6-yl)urea]",95
10,"CCNC(=O)Nc1cc(-c2nc(C(F)(F)F)c(C(=O)NCCN3CCOCC3)s2)c(-c2cncc(-c3nnc(C)o3)c2)cn1 [Example 62, 2-(6-(3-ethylureido)-5′-(5-methyl-1,3,4-oxadiazol-2-yl)-3,3′-bipyridin-4-yl)-N-(2-morpholinoethyl)-4-(trifluoromethyl)thiazole-5-carboxamide]",86
11,CCNC(=O)Nc1cc(-c2nc(C(F)(F)F)c(C)s2)c(-c2cncc(-c3n[nH]c(=O)o3)c2)cn1 [Example 145],100
12,"CCNC(=O)Nc1cc(-c2ccnn2C)c(-c2cncc(-c3n[nH]c(=O)o3)c2)cn1 [Example 28, 1-ethyl-3-(4-(1-methyl-1H-pyrazol-5-yl)-5′-(5-oxo-4,5-dihydro-1,3,4-oxadiazol-2-yl)-3,3′-bipyridin-6-yl)urea]",70
13,CCNC(=O)Nc1cc(-c2nc(C(F)(F)F)cs2)c(-c2cncc(-c3nnc(N4CCCC(O)C4)o3)c2)cn1 (centres unmarked) [Example 181],97
14,CCNC(=O)Nc1cc(-c2nc(C(F)(F)F)cs2)c(-c2cncc(-c3nnc(N4CCOCC4)o3)c2)cn1 [Example 154],105
15,CCNC(=O)Nc1cc(-c2nc(C3CCCCC3)cs2)c(-c2cncc(-c3n[nH]c(=O)o3)c2)cn1 [Example 211],109
16,CCNC(=O)Nc1cc(-c2nc(C(F)(F)F)cs2)c(-c2cc(-c3n[nH]c(=O)o3)cnc2OC[C@@H](C)O)cn1 [Example 225],117
17,"CCNC(=O)Nc1cc(-c2nc(-c3cccc(OC)n3)cs2)c(-c2nc(-c3ncnn3C)c(-c3n[nH]c(=O)o3)s2)cn1 [Example 251, 1-ethyl-3-(4-(4-(6-methoxypyridin-2-yl)thiazol-2-yl)-5-(4-(1-methyl-1H-1,2,4-triazol-5-yl)-5-(5-oxo-4,5-dihydro-1,3,4-oxadiazol-2-yl)thiazol-2-yl)pyridin-2-yl)urea]",99
18,"CCNC(=O)Nc1cc(-c2nc(-c3ccccc3)cs2)c(-c2cncc(-c3nnc(C)o3)c2)cn1 [Example 94, 1-ethyl-3-(5′-(5-methyl-1,3,4-oxadiazol-2-yl)-4-(4-phenylthiazol-2-yl)-3,3′-bipyridin-6-yl)urea]",98
19,"CCNC(=O)Nc1cc(-c2nc(C(F)(F)F)cs2)c(-c2cncc(-c3nnc(CN(C)C)o3)c2)cn1 [Example 268, 1-(5′-(5-((dimethylamino)methyl)-1,3,4-oxadiazol-2-yl)-4-(4-(trifluoromethyl)thiazol-2-yl)-3,3′-bipyridin-6-yl)-3-ethylurea]",98
